Patent US20240100065A1, “METHODS FOR TREATING RECEPTOR-INTERACTING PROTEIN KINASE 1-MEDIATED DISEASES” (Genzyme Corporation, priority 2022, published 2024)
“Also recorded” adds a separate entry of the source.

Assay: Plasma pharmacokinetics after single and repeated oral doses
Format: in vivo, healthy adult participants (human)
Details: for AUC ratio, point estimate / AUClast ratio, point estimate / Cmax ratio, point estimate: Part 1a fasted
Description: In Part 1a, plasma samples were collected before dosing and at 10 post-dose timepoints on Day 1 (30 minutes, 1 hour, followed by every hour until 6 hours, and then every 2 hours until 12 hours), and single samples on Day 2 (at 24 hours) and Day 3 (at 48 hours). In Part 1b, timepoints included at least pre-dose and at 10 post-dose timepoints, including plasma sampling at the same time of CSF sampling. In Part 2, on Day 1 and Day 14, plasma samples were collected at pre-dose and at 10 to 11 post-dose timepoints. In addition, plasma samples were collected on Days 2, 3, 5, 7, 11, 15, 16, and 17.
PK population included all participants exposed to Compound 1 with no major or critical deviations related to Compound 1 and for whom PK data were considered sufficient and interpretable. PK parameters were summarized by descriptive statistics for each dose level group. Distribution of Tmax values was represented by histogram plots for each dose level group. In Part 1a, dose proportionality was assessed using a linear model on Cmax, AUClast and AUC. In Part 2, all PK analyses were performed separately for each regimen (OD and BID). Steady state was assessed on Ctrough using a non-linear model. Accumulation was assessed using a linear model on log-transformed accumulation ratio. Dose proportionality was assessed using a power model on Cmax and AUCtau on Day 1 and Day 14, separately. Variance components of log-transformed Cmax and AUCtau were estimated using a linear model. In Part 1b, CSF concentration was described by dose level group and CSF to plasma unbound concentration ratios calculated were described in the same way. 4β-hydroxycholesterol on Day 14 versus Day 1 pre-dose concentration ratios were summarized using descriptive statistics by dose level group and point estimates with 90% confidence interval (90% CI) for the geometric mean of the log-transformed Day14/Day1 ratio was calculated in Part 2.

[1] = 20 mg vs. 10 mg (dose increase = 2)
[2] = 30 mg vs. 10 mg (dose increase = 3)
[3] = 30 mg vs. 20 mg (dose increase = 1.5)
[4] = 40 mg vs. 10 mg (dose increase = 4)
[5] = 40 mg vs. 20 mg (dose increase = 2)
[6] = 40 mg vs. 30 mg (dose increase = 1.33)

## CC(C)(C(=O)N1CCOc2c(C#N)cncc2C1)C(F)F [Compound 1, 4-(3,3-difluoro-2,2-dimethyl-propanoyl)-3,5-dihydro-2H-pyrido[3,4-f] [1,4]oxazepine-9-carbonitrile]
10 mg QD
  Accumulation ratio (AUC0-24h), Day 14/Day 1: 1.31
  Accumulation ratio (Cmax), Day 14/Day 1: 1.00
15 mg BID
  Accumulation ratio (AUC0-12h), Day 14/Day 1: 1.45
  Accumulation ratio (Cmax), Day 14/Day 1: 1.24
20 mg BID
  Accumulation ratio (AUC0-12h), Day 14/Day 1: 1.63
  Accumulation ratio (Cmax), Day 14/Day 1: 1.71
20 mg QD
  Accumulation ratio (AUC0-24h), Day 14/Day 1: 1.13
  Accumulation ratio (Cmax), Day 14/Day 1: 1.06
20 mg QD, MAD study, read-out: Mean observed Cmax at steady state
  Cmax: 860 nM
BID cohorts
  Within-subject variability for AUCtau: 11.3%
  Within-subject variability for Cmax: 17.9%
BID dosing regimen
  Total variability for AUCtau: 28.4%
  Total variability for Cmax: 32.2%
Day 14, 10 and 20 mg QD
  Dose proportionality: AUC0-24h (AUCtau) ratio for dose ratio (r) = 2: 1.51
  Dose proportionality: Cmax ratio for dose ratio (r) = 2: 1.58
Day 14, 15 and 20 mg BID
  Dose proportionality: AUC0-12h (AUCtau) ratio for dose ratio (r) = 1.3333: 1.32
  Dose proportionality: Cmax ratio for dose ratio (r) = 1.3333: 1.31
[1]
  AUC ratio, point estimate: 2.07
  AUClast ratio, point estimate: 2.11
  Cmax ratio, point estimate: 2.08
[2]
  AUC ratio, point estimate: 2.09
  AUClast ratio, point estimate: 2.16
  Cmax ratio, point estimate: 3.60
[3]
  AUC ratio, point estimate: 1.01
  AUClast ratio, point estimate: 1.02
  Cmax ratio, point estimate: 1.73
[4]
  AUC ratio, point estimate: 4.43
  AUClast ratio, point estimate: 4.56
  Cmax ratio, point estimate: 4.79
[5]
  AUC ratio, point estimate: 2.15
  AUClast ratio, point estimate: 2.16
  Cmax ratio, point estimate: 2.31
[6]
  AUC ratio, point estimate: 2.12
  AUClast ratio, point estimate: 2.11
  Cmax ratio, point estimate: 1.33
Part 1a single 10 mg fasted
  AUC, GM: 1170 ng·h/mL
  CL/F, GM: 8.56 L/h
  CL/F, mean: 9.11 L/h
  Cmax, GM: 116 ng/mL
  T1/2z, GM: 7.97 h
  T1/2z, mean: 8.22 h
  Tlast, median: 48.0 h
  Tmax, median: 1.02 h
Part 1a single 20 mg fasted
  AUC, GM: 2410 ng·h/mL
  AUC, mean: 2450 ng·h/mL
  AUClast, GM: 2360 ng·h/mL
  AUClast, mean: 2400 ng·h/mL
  CL/F, GM: 8.28 L/h
  CL/F, mean: 8.43 L/h
  Cmax, GM: 241 ng/mL
  T1/2z, GM: 7.48 h
  T1/2z, mean: 7.63 h
  Tlast, median: 48.0 h
  Tmax, median: 1.50 h
Part 1a single 30 mg fasted
  AUC, GM: 2440 ng·h/mL
  AUClast, GM: 2420 ng·h/mL
  CL/F, GM: 12.3 L/h
  CL/F, mean: 13.1 L/h
  Cmax, GM: 417 ng/mL
  T1/2z, GM: 5.70 h
  T1/2z, mean: 5.99 h
  Tlast, median: 48.0 h
  Tmax, median: 1.00 h
Part 1a single 40 mg fasted
  AUC, GM: 5180 ng·h/mL
  AUClast, GM: 5120 ng·h/mL
  CL/F, GM: 7.72 L/h
  CL/F, mean: 8.15 L/h
  Cmax, GM: 555 ng/mL
  T1/2z, GM: 6.29 h
  T1/2z, mean: 6.40 h
  Tlast, median: 48.0 h
  Tmax, median: 1.50 h
Part 1a, between 10 and 40 mg
  Dose proportionality of exposures: no major deviation from dose proportionality; also recorded: increased according to dose proportionality
Part 1b single 10 mg fed
  AUC, GM: 1370 ng·h/mL
  AUClast, GM: 1170 ng·h/mL
  CL/F, GM: 7.27 L/h
  CL/F, mean: 7.63 L/h
  Cmax, GM: 111 ng/mL
  Cmax, mean: 115 ng/mL
  T1/2z, GM: 7.97 h
  T1/2z, mean: 8.09 h
  Tlast, median: 24.0 h
  Tmax, median: 4.24 h
Part 1b single 40 mg fed
  AUC, GM: 4740 ng·h/mL
  AUClast, GM: 3960 ng·h/mL
  CL/F, GM: 8.43 L/h
  CL/F, mean: 8.92 L/h
  Cmax, GM: 374 ng/mL
  T1/2z, GM: 8.03 h
  T1/2z, mean: 8.31 h
  Tlast, median: 24.0 h
  Tmax, median: 4.5 h
Part 2, Day 14
  Mean T1/2z across doses and regimens: 7.3 to 9.1 h
Part 2, after first administration, irrespective of dose or regimen
  Median time to steady state of plasma concentrations: 1.4 to 2 days
